Assays:
Adenosine A2B = target: T1, Adenosine A2B (Homo sapiens, UniProt P29275); test: Radioligand binding assay 2, Adenosine A2B; conditions: at 1 μmol/l; human recombinant HEK-293 cells, [3H]MRS 1754; read-out: A2B AR % inhibition of agonist binding
T1 construct: expressed in transfected cells; host or cells: HEK-293 cells
T1 sequence (P29275 1-332): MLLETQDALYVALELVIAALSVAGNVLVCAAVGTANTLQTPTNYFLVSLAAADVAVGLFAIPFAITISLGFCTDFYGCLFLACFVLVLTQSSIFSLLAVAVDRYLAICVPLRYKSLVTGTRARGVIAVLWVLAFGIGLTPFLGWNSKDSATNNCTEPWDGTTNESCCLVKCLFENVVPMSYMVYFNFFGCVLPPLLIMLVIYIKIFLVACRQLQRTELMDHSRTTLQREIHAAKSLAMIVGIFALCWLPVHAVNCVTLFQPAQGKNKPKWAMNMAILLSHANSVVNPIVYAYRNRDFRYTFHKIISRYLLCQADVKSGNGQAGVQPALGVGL
Description: (§1) The assays were performed under the conditions described below. The literature references are also provided for each assay:
The adenosine A2B radioligand binding assay used is further described in Stehle J. H. et al., Mol. Endocrinol., 1992, 6, 384 and is incorporated herein by reference.
(§2) The specific ligand binding to the receptors is defined as the difference between the total binding and the non-specific binding determined in the presence of an excess of unlabelled ligand. The results are expressed as a percent of control specific binding and as percent inhibition of control specific binding obtained in the presence of the test compounds.

Adenosine A3 = target: T2, Adenosine A3 (Homo sapiens, UniProt P0DMS8); test: Radioligand binding assay 2, Adenosine A3; conditions: at 1 μmol/l; human recombinant HEK-293 cells, [125I]AB-MECA; read-out: A3 AR % inhibition of agonist binding
T2 construct: expressed in transfected cells; host or cells: HEK-293 cells
T2 sequence (P0DMS8 1-318): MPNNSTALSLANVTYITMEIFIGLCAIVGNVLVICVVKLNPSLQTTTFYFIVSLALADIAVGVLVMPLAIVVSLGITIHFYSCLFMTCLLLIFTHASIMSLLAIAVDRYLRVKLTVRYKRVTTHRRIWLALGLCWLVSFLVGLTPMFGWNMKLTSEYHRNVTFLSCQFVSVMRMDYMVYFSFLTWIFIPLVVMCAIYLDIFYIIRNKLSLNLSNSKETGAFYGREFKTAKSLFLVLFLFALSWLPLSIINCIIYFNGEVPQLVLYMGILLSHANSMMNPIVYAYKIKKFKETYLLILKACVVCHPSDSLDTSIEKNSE
Description: as §1
The adenosine A3 radioligand binding assay used is further described in Salvatore C. A. et al., Proc. Natl. Acad. Sci. USA, 1993, 90, 10365 and is incorporated herein by reference.
as §2

Adenosine A1 = target: T3, Adenosine A1 (Homo sapiens, UniProt P30542); test: Radioligand binding assay 2, Adenosine A1; parameters: expressed in transfected cells; host or cells: CHO cells; conditions: at 1 μmol/l; human recombinant CHO cells, [3H]CCPA; read-out: A1 AR % inhibition of agonist binding
T3 sequence (P30542 1-326): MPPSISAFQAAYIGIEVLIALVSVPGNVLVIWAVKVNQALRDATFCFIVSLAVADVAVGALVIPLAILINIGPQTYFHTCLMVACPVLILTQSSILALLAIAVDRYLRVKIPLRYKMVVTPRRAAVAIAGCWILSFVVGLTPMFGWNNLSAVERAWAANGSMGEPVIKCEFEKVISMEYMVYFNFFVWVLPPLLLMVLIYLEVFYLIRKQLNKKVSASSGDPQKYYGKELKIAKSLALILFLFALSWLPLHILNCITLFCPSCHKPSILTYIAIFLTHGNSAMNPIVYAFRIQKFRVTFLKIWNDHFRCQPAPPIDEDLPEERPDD
Description: as §1
The adenosine A1 radioligand binding assay used is further described in Rivkees S. A. et al., J. Biol. Chem., 1995, 270, 20485 and is incorporated herein by reference.
as §2

Adenosine A2A = Adenosine A2A (Homo sapiens, UniProt P29274); test: Radioligand binding assay 2, Adenosine A2A; parameters: expressed in transfected cells; host or cells: HEK-293 cells; conditions: at 1 μmol/l; human recombinant HEK-293 cells, [3H]CGS 21680; read-out: A2A AR % inhibition of agonist binding
Sequence of Adenosine A2A (P29274 whole entry): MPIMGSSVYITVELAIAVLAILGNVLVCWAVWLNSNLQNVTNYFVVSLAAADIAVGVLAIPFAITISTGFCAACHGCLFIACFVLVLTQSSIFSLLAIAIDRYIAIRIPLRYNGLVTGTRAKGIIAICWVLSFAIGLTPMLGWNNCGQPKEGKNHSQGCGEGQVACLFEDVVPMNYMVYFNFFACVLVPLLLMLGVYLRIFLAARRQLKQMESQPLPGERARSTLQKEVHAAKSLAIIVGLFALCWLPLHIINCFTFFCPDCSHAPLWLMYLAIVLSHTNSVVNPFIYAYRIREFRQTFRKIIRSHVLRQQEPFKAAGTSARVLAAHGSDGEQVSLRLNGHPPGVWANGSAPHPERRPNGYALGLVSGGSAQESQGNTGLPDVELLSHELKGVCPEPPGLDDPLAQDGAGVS
Description: as §1
The adenosine A2A radioligand binding assay used is further described in Luthin D. R. et al., Mol. Pharmacol., 1995, 47 and is incorporated herein by reference.
as §2

MAO-B = target: T4, MAO-B (Homo sapiens, UniProt P27338); test: MAO-B inhibition; type: biochemical
T4 sequence (P27338 1-520): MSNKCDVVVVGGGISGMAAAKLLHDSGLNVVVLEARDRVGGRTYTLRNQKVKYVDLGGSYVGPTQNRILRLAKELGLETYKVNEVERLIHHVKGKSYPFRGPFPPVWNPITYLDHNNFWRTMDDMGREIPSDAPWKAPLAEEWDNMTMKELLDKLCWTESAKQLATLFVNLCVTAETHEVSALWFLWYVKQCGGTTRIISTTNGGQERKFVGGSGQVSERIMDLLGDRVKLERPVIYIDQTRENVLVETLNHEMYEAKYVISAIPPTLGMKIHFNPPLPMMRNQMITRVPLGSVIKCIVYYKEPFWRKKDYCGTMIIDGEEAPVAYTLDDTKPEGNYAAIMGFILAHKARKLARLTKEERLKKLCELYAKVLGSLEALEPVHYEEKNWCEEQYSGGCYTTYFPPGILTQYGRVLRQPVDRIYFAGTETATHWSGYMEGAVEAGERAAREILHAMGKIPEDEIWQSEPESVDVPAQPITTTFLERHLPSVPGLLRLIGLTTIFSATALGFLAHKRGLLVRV

SMILES	inhibition at 1 µM (Adenosine A2B) [%]	inhibition at 1 µM (Adenosine A3) [%]	inhibition at 1 µM (Adenosine A1) [%]	inhibition at 1 µM (Adenosine A2A) [%]	melting point [°C]	Mao-B-inhibition values (MAO-B)
C#CCn1c(=O)c2c(nc(C#Cc3cccc(OC)c3)n2C)n(C)c1=O [drawing 607]	19	24	5	81		
C#CCn1c(=O)c2c(nc(C#Cc3ccc(OC)c(OC)c3)n2C)n(C)c1=O [drawing 609]	19	16	10	85		
C#CCn1c(=O)c2c(nc(C#Cc3cccc(O)c3)n2C)n(C)c1=O [8-(3-Hydroxyphenylethynyl)-3,7-dimethyl-1-prop-2-ynyl-3,7-dihydropurine-2,6-dione]					271	
C#CCn1c(=O)c2c(nc(C#Cc3cccc(Cl)c3)n2C)n(C)c1=O [8-(3-chlorophenylethynyl)-3,7-dimethyl-1-prop-2-ynyl-3,7-dihydropurine-2,6-dione]						submikromolar range
C#CCn1c(=O)c2c(nc(C#Cc3cccc(OC(C)=O)c3)n2C)n(C)c1=O [8-(3-Acetoxyphenylethynyl)-3,7-dimethyl-1-prop-2-ynyl-3,7-dihydropurine-2,6-dione]					238	
C#CCn1c(=O)c2c(nc(C#Cc3cccc(Br)c3)n2C)n(C)c1=O [8-(3-bromophenylethynyl)-3,7-dimethyl-1-prop-2-ynyl-3,7-dihydropurine-2,6-dione]						submikromolar range
C#CCn1c(=O)c2c(nc(C#Cc3cccc(OC)c3)n2C)n(CCCO)c1=O [drawing 611]	6	37	41	93		
C#CCn1c(=O)c2c(nc(C#Cc3cccc(C)c3)n2C)n(CCCO)c1=O [drawing 613]	17	54	43	92		
C#CCn1c(=O)c2c(nc(C#Cc3ccc(OC)c(OC)c3)n2C)n(CC)c1=O [drawing 608]	14	38	4	95		
C#CCn1c(=O)c2c(nc(C#Cc3ccc(OC)c(OC)c3)n2C)n(CCCO)c1=O [drawing 612]	14	36	34	97		
C#CCn1c(=O)c2c(nc(C#Cc3cccc(OC)c3)n2CC#C)n(C)c1=O [drawing 610]	22	37	24	86		

Source: patent publication US20080221134A1, “8-ALKYNYLXANTHINES AND DERIVATIVES” (priority 2006, published 2008)
